Results published in patent US6375926B1, “Labelled elastase inhibitors” (Amersham International PLC, priority 1996, dated 2002).

Columns and labels:
[1] = molecular target: T1, HLE (human leucocyte elastase) (Homo sapiens, UniProt P08246); experiment: Measurement of HLE inhibition potency (kinact/Ki); format: biochemical; conditions: measured for non-radioactive iodine-labelled compounds and unlabelled chelate conjugates
T1 sequence (P08246 30-267): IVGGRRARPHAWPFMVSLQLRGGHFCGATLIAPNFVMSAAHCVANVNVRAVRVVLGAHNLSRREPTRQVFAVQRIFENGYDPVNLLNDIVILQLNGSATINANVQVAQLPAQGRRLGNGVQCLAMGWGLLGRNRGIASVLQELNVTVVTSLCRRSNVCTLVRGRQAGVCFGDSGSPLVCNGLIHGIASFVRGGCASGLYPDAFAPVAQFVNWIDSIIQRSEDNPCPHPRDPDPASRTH
Description: Inhibitor potency against HLE is described by the parameter kinact/Ki as previously reported [Knight et al., Biochem., 8160-8170, (1992)]. Lyophilised enzyme was reconstituted with TrisHCl buffer, 100 mM, 0.5M NaCl at 0.05 units/ml (approximately nanomolar concentration) in a final reaction volume of 1 ml to which was added methoxysucc-ala-ala-pro-val-pNA substrate (1 mM) and the elastase inhibitor dissolved in DMSO. The reaction was monitored by detecting the change of absorbance at 410 nm (hydrolysis of the substrate releasing p-nitroaniline) over a timescale of 25 minutes. Values of kinact/Ki were estimated according to the Knight et al method.

[2] = system: isolated human white cells (granulocytes; monocytes + lymphocytes); experiment: In vitro cell uptake in isolated human white cells; format: cell-based; conditions: for selectivity for granulocytes over a mixture of monocytes/lymphocytes: approximately equivalent numbers of monocytes/lymphocytes and granulocytes present; for % uptake in Gran. (granulocytes), WHITE CELLS / % uptake in Mon. (monocytes + lymphocytes), WHITE CELLS: isolated human white cells, 30 minutes at 37° C., radiolabelled compound
Description: Fresh blood (30-120 ml) was anticoagulated with 1.5% ACD solution and sedimented by addition of 2 ml Hespan per 10 ml blood for 90 minutes at room temperature. The leucocyte rich platelet rich plasma supernatant was removed and centrifuged at 150 g for 5 minutes, yielding a leucocyte rich pellet and platelet rich plasma (PRP). The PRP was centrifuged at 4000 g to pellet the platelets leaving a cell free plasma (CFP). The leucocyte pellet was resuspended in a 50:50 mixture of HBSS and CFP and incubated with the radioactive compound for 30 minutes at 37° C. Free radioactive material was then removed from the cells by addition of an excess of HBSS:CFP and centrifugation of the leucocytes at 150 g for 7 minutes. The supernatant and cell pellet were taken for radioactive counting for calculation of percentage cell uptake. The distribution of radioactivity within the cell pellet was assessed by separation of the cell types using Percoll density gradient centrifugation (38%, 55% and 73% Percoll in HBSS step gradients). The residual plasma and free activity was recovered from the top of the gradient, the mononuclear cells (lymphocytes and monocytes) from the interface between 38% and 55%, and the granulocytes were recovered from the interface between 55% and 73% Percoll.

[3] = system: mixed human red/white cells (granulocytes, monocytes + lymphocytes, erythrocytes); experiment: In vitro cell uptake in mixed human red/white cells; format: cell-based; conditions: radiolabelled compound
Description: The radioactive compound was also incubated with an isolated leucocyte preparation to which an erythrocyte fraction had been added back. The packed erythrocytes obtained after blood sedimentation were washed twice with HBSS and then resuspended in their original blood volume with HBSS. Leucocytes obtained from 30 ml blood were resuspended in 0.5 ml erythrocyte suspension and 0.5 ml CFP. The cell suspension was then incubated with compound as above. Analysis of the distribution of activity in the cell pellet in the presence of red blood cells was carried out using Ficoll-Hypaque discontinuous density gradients (densities 1.04, 1.077 and 1.119 g/ml Histopaque steps).

[4] = system: human whole blood (granulocytes, monocytes + lymphocytes, erythrocytes); experiment: In vitro cell uptake in human whole blood; format: cell-based; conditions: 37° C. for 1 hour, radiolabelled compound
Description: The radioactive compound was added to 1 ml whole blood anticoagulated with ACD and incubated at 37° C. for 1 hour. The blood was diluted with HBSS and the cellular component separated by centrifugation. Distribution of activity within the cellular pellet was assessed by separation of cell fractions on Ficoll-Hypaque gradients as above.

Row | Compound | Potency (1/(M·s)), kinact/Ki [1] [M⁻¹ s⁻¹] | kinact/KI ([1]; read-out: Potency (M/sec), kinact/Ki) [M⁻¹ s⁻¹] | selectivity for granulocytes over a mixture of monocytes/lymphocytes [2] | % uptake in Gran. (granulocytes), WHITE CELLS [2] [%] | % uptake in Mon. (monocytes + lymphocytes), WHITE CELLS [2] [%] | % uptake in Eryth. (erythrocytes), WHITE AND RED CELLS [3] [%] | % uptake in Gran. (granulocytes), WHITE AND RED CELLS [3] [%] | % uptake in Mon. (monocytes + lymphocytes), WHITE AND RED CELLS [3] [%] | % uptake in Eryth. (erythrocytes), WHOLE BLOOD [4] [%] | % uptake in Gran. (granulocytes), WHOLE BLOOD [4] [%] | % uptake in Mon. (monocytes + lymphocytes), WHOLE BLOOD [4] [%]
1 | CCC1(CC)C(=O)N(C(=O)NCc2ccccc2)C1Oc1ccc(C(=O)NCC(C)(CNC(C)(C)C(C)=NO)CNC(C)(C)C(C)=NO)cc1 (racemic) [Compound 49, Conjugate Between Chelate, 3,3,6,9,9-pentamethyl-6-aminomethyl-4,8-diazaundecane-2,10-dionedioxime and 4-[(4-carboxy)phenoxy]-1-[benzylaminocarbonyl]-3,3-diethyl-2-azetidinone] | 20000 | – | some degree of selectivity for granulocytes | 47.3 | 10.1 | 18.0 | 17.5 | 13.9 | 14.3 | 6.9 | 24.6
2 | CCC1(CC)C(=O)N(C(=O)NCc2ccc(I)cc2)C1Oc1ccc(C(=O)N2CCN(C)CC2)cc1 (single isomer, unassigned) [Compound 4b] | 1350 | – | some degree of selectivity for granulocytes | 4.8 | 0.9 | 1.6 | 3.3 | 3.8 | – | – | –
3 | CCC1(CC)C(=O)N(C(=O)NCc2ccc(C(=O)NCC(C)(CNC(C)(C)C(C)=NO)CNC(C)(C)C(C)=NO)cc2)C1Oc1ccc(C(=O)N2CCN(C)CC2)cc1 (racemic) [Compound 38, Conjugate Between Chelate, 3,3,6,9,9-Pentamethyl-6-aminomethyl-4,8-diazaundecane-2,10-dionedioxime and 4-[4-[[(4-Methyl)piperazin-1-yl]carbonyl]phenoxy]-1-[(4-carboxy)benzylaminocarbonyl]-3,3-diethyl-2-azetidinone] | 58500 | – | some degree of selectivity for granulocytes | 75.5 | 8.5 | 28.4 | 32.5 | 6.7 | – | – | –
4 | CCC1(CC)C(=O)N(C(=O)NCCc2cc(I)c(O)c(I)c2)C1S(=O)(=O)CCOC (centres unmarked) [Compound 17, 4-(2-Methoxyethylsulfonyl)-1-[(3,5-diiodo)(4-hydroxy)phenylethylaminocarbonyl]-3,3-diethyl-2-azetidinone] | – | 600 | some degree of selectivity for granulocytes | 0.4 | 0.0 | – | – | – | – | – | –

Second part, led by results:

Row | Potency (1/(M·s)), kinact/Ki [1] [M⁻¹ s⁻¹] | kinact/KI ([1]; read-out: Potency (M/sec), kinact/Ki) [M⁻¹ s⁻¹] | Compound | selectivity for granulocytes over a mixture of monocytes/lymphocytes [2] | % uptake in Gran. (granulocytes), WHITE CELLS [2] [%] | % uptake in Mon. (monocytes + lymphocytes), WHITE CELLS [2] [%] | % uptake in Eryth. (erythrocytes), WHITE AND RED CELLS [3] [%] | % uptake in Gran. (granulocytes), WHITE AND RED CELLS [3] [%] | % uptake in Mon. (monocytes + lymphocytes), WHITE AND RED CELLS [3] [%] | % uptake in Eryth. (erythrocytes), WHOLE BLOOD [4] [%] | % uptake in Gran. (granulocytes), WHOLE BLOOD [4] [%] | % uptake in Mon. (monocytes + lymphocytes), WHOLE BLOOD [4] [%]
5 | 7800 | – | CCC1(CC)C(=O)N(C(=O)NCc2ccccc2)C1Oc1ccc(C(=O)NCCN(CCNC(C)(C)C(C)=NO)CCNC(C)(C)C(C)=NO)cc1 (racemic) [Compound 52, Conjugate Between Chelate, 3,3,11,11-tetramethyl-7-aminomethyl-4,7,10-triazatridecane-2,12-dionedioxime and 4-[(4-carboxy)phenoxy]-1-[benzylaminocarbonyl]-3,3-diethyl-2-azetidinone] | some degree of selectivity for granulocytes | 1.9 | 0.8 | 7.1 | 1.8 | 8.2 | 37.4 | 9.1 | 10.9
6 | 5500 | – | CCC1(CC)C(=O)N(C(=O)NCCCCCC(=O)NCC(C)(CNC(C)(C)C(C)=NO)CNC(C)(C)C(C)=NO)C1Oc1ccc(C(=O)N2CCN(C)CC2)cc1 (racemic) [Compound 48, Conjugate Between Chelate, 3,3,6,9,9-pentamethyl-6-aminomethyl-4,8-diazaundecane-2,10-dionedioxime and 4-[4-[[(4-Methyl)piperazin-1-yl]carbonyl]phenoxy]-1-[(5-carboxy)pentylaminocarbonyl]-3,3-diethyl-2-azetidinone] | some degree of selectivity for granulocytes | 64.5 | 7.3 | 38.7 | 16.2 | 7.2 | 9.17 | 10.6 | 22.7
7 | 1400 | – | CCC1(CC)C(=O)N(C(=O)NCCC(=O)NCC(C)(CNC(C)(C)C(C)=NO)CNC(C)(C)C(C)=NO)C1Oc1ccc(C(=O)N2CCN(C)CC2)cc1 (racemic) [Compound 42, Conjugate Between Chelate, 3,3,6,9,9-pentamethyl-6-aminomethyl-4,8-diazaundecane-2,10-dionedioxime and 4-[4-[[(4-Methyl)piperazin-1-yl]carbonyl]phenoxy]-1-[(2-carboxy)ethylaminocarbonyl]-3,3-diethyl-2-azetidinone] | some degree of selectivity for granulocytes | 8.4 | 1.2 | 18.9 | 2.5 | 6.9 | – | – | –
8 | 2500 | – | CCC1(CC)C(=O)N(C(=O)NCCC(=O)NCCN(CCNC(C)(C)C(C)=NO)CCNC(C)(C)C(C)=NO)C1Oc1ccc(C(=O)N2CCN(C)CC2)cc1 (racemic) [Compound 51, Conjugate Between Chelate, 3,3,11,11-Tetramethyl-7-aminomethyl-4,7,10-triazatridecane-2,12-dionedioxime and 4-[4-[[(4-Methyl)piperazin-1-yl]carbonyl]phenoxy]-1-[(2-carboxy)ethylaminocarbonyl]-3,3-diethyl-2-azetidinone] | some degree of selectivity for granulocytes | 3.9 | 0.4 | 11.2 | 1.9 | 13.4 | 0.8 | 1.7 | 28.7
